Counter-ions that a name gives are not always drawn.
Assays:
Format in all cases: in vivo, mouse
mice [1] = assay: Open field test; settings: i.t., 30 min before test
mice [2] = assay: Rotarod test; settings: i.t. H-20 30 nmol or morphine 2 nmol, 15 to 120 min
naïve WT mice = assay: Acute itch behaviors; settings: i.t., counted within 30 min, morphine 2 nmol
mice [3] = assay: Antinociceptive tolerance in CFA model; settings: i.t. 7 consecutive days, H-20 30 nmol or morphine 20 nmol
[4] = system: spinal cord of naïve WT mice; assay: Spinal cord immunohistochemistry; settings: i.t. daily for 7 d, H-20 30 nmol or morphine 2 nmol
mice [5] = assay: Conditioned place preference; settings: i.t. H-20 30 nmol or morphine 2 nmol

Question: Which results are given for `CN1CC[C@]23c4c5ccc(O)c4O[C@H]2[C@@H](O)C=C[C@H]3[C@H]1C5` [morphine, Morphine hydrochloride]?
Answer: time in center area and frequency of entry into central zone (anxiety) (mice [1]): No intergroup differences were observed; time on rotarod (mice [2]): did not change the length of time; itch-related scratching behaviors (naïve WT mice): significantly evoked itch-related scratching behaviors; antiallodynic effect after repeated injection (tolerance) (mice [3]): significantly decreased on test day 7; microglial activation in spinal cord [4]: induced significant microglial activation; number of c-Fos–positive neurons in spinal cord [4]: markedly increased the number of c-Fos–positive neurons; CPP response (mice [5]): significant increase in the drug-treated chamber
